The source of these data is US20250368627A1, “PYRAZOLESULFONAMIDES AS ANTITUMOR AGENTS” (Peloton Therapeutics, Inc., a fully owned subsidiary of …, priority 2019, published 2025).

Test [1] deals with T1, DDB1DB/DCAF15 and RBM39 R1R2 complex (Homo sapiens, UniProt Q14498+Q66K64).
T1 construct: Amino acids 150 to 331 of RBM39 were cloned into pGEX4T3; GST (from vector pGEX4T3); TEV cleavage site (N); made in house; host or cells: DDB1DB/His-DCAF15: baculovirus/Sf9 co-expression; RBM39 R1R2: E. coli (pGEX4T3)
Briefly: DCAF15 RBM39 Complex Formation Assay (FRET). Format: binding. Particulars: FRET ratio Em 665/Em 615, incubated overnight at 4° C. The gist of the method: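 Ternary complex formation read by TR-FRET (Em 665/615, excitation 340 nm) after overnight incubation at 4° C of 20 nM baculovirus DDB1DB/His-DCAF15 and 50 nM E. coli RBM39 RRM1-RRM2 FLAG fragment with 14-point, 3-fold compound dilutions from 1 μM; EC50 from 4-parameter fit.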

Test [2] has as its system HCT116 human colorectal carcinoma cells. Description: CellTiter-Glo Luminescent Cell Viability Assay. Format: cell-based. The conditions noted are these: HCT-116, 72 h, 3 days. The gist of the method: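 HCT116 cells were exposed for 3 days to compound in triplicate at final concentrations of 5 to 0.0002 […] (1:3 dilutions). Viability was read by CellTiter-Glo luminescence, and IC50 values were calculated.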

T1 sequence (Q66K64 whole entry, the tested form may be a part): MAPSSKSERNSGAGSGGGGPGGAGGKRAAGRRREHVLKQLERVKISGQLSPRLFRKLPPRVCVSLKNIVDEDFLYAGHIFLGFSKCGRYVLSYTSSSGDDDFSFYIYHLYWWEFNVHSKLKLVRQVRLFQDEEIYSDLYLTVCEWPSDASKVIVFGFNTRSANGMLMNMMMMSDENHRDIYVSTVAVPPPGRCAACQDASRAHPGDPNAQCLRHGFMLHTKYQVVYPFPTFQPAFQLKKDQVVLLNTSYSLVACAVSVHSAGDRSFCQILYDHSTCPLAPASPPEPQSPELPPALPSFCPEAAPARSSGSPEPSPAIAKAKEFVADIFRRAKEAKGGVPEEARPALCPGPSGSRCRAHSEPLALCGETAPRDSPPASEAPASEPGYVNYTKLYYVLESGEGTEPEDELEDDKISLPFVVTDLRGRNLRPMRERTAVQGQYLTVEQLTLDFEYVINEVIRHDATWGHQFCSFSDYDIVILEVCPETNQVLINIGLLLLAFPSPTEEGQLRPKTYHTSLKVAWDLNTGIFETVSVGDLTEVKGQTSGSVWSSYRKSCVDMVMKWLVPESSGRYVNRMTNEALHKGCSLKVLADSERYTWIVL
T1 sequence (Q14498 150-331): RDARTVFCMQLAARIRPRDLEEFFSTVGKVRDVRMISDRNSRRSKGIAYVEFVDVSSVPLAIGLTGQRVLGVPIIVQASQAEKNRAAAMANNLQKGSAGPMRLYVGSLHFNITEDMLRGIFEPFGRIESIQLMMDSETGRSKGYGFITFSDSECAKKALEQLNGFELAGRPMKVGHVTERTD
T1 sequence (Q16531 with tags, fused parts or gaps DEL396-708 partner): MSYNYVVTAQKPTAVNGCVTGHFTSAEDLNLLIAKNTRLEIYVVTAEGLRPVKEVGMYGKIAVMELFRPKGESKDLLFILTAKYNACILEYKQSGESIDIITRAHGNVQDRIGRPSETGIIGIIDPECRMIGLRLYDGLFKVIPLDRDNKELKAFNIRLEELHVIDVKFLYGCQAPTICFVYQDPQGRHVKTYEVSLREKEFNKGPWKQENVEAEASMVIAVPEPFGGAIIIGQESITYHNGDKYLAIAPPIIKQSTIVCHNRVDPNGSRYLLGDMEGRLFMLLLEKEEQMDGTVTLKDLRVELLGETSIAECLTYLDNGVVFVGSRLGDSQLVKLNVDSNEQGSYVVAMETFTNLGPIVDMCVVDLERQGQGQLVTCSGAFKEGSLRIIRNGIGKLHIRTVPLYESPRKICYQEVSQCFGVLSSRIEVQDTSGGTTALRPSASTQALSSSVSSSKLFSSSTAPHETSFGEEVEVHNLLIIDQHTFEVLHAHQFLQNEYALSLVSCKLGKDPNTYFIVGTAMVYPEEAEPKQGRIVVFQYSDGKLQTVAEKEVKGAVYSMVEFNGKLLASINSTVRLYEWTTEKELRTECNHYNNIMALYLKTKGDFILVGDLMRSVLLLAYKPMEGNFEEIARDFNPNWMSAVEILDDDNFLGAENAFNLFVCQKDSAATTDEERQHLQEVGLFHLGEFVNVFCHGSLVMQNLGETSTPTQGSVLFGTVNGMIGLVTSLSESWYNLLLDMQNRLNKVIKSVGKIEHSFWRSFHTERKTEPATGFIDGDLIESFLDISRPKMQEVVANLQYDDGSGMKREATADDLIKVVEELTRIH

As to `N#Cc1c[nH]c2c(NS(=O)(=O)c3cnn(CC(F)F)c3N)ccc(Cl)c12` [Compound 278, 5-amino-N-(4-chloro-3-cyano-1H-indol-7-yl)-1-(2,2-difluoroethyl)pyrazole-4-sulfonamide], the IC50 in test [1] was less than 250 nM. In test [2], the EC50 is less than 250 nM.

For `N#Cc1c[nH]c2c(NS(=O)(=O)c3cnn(CC(F)F)c3N)ccc(F)c12` [Compound 279, 5-amino-N-(4-cyano-4-fluoro-1H-indol-7-yl)-1-(2,2-difluoroethyl)pyrazole-4-sulfonamide], the IC50 in test [1] is less than 250 nM. Further, the EC50 in test [2] is 250 to 1000 nM.

Take `CC(C)(O)Cn1ncc(S(=O)(=O)Nc2ccc(F)c3c(C#N)c[nH]c23)c1Cl` [Compound 280, 5-chloro-N-(3-cyano-4-fluoro-1H-indol-7-yl)-1-(2-hydroxy-2-methyl-propyl)pyrazole-4-sulfonamide]: the IC50 in test [1] is less than 250 nM. Further, the EC50 in test [2] is greater than 1000 nM.

As for `Cc1ccc(NS(=O)(=O)c2cnn([C@H](C)CF)c2)c2[nH]cc(C#N)c12` [Compound 281, N-(3-cyano-4-methyl-1H-indol-7-yl)-1-[(1R)-2-fluoro-1-methyl-ethyl]pyrazole-4-sulfonamide], the IC50 in test [1] was less than 250 nM. For the same compound, the EC50 in test [2] was less than 250 nM.

Consider `Cn1ncc(S(=O)(=O)Nc2ccc(F)c3c(C#N)c[nH]c23)c1N` [Compound 282, 5-amino-N-(3-cyano-4-fluoro-1H-indol-7-yl)-1-methyl-pyrazole-4-sulfonamide], for which, in test [1], the IC50 was less than 250 nM. In test [2], the EC50 was 250 to 1000 nM.

With `Cc1ccc(NS(=O)(=O)c2cnn(CC(C)(C)O)c2N)c2[nH]cc(C#N)c12` [Compound 283, 5-amino-N-(3-cyano-4-methyl-1H-indol-7-yl)-1-(2-hydroxy-2-methyl-propyl)pyrazole-4-sulfonamide], the IC50 in test [1] was less than 250 nM. Also, in test [2], the EC50 is 250 to 1000 nM.

As for `Cc1ccc(NS(=O)(=O)c2cnn(C(F)F)c2N)c2[nH]cc(C#N)c12` [Compound 284, 5-amino-N-(3-cyano-4-methyl-1H-indol-7-yl)-1-(difluoromethyl)pyrazole-4-sulfonamide], in test [1], the IC50 was less than 250 nM. Also, the EC50 in test [2] is less than 250 nM.

`N#Cc1c[nH]c2c(NS(=O)(=O)c3cnn(C(F)F)c3N)ccc(F)c12` [Compound 285, 5-amino-N-(3-cyano-4-fluoro-1H-indol-7-yl)-1-(difluoromethyl)pyrazole-4-sulfonamide]: the IC50 in test [1] was less than 250 nM. In test [2], the half-maximal effective concentration (EC50) was 250 to 1000 nM.

Take `C[C@H]([C@@H](C)O)n1cc(S(=O)(=O)Nc2ccc(Cl)c3c(C#N)c[nH]c23)cn1` [Compound 286, N-(4-chloro-3-cyano-1H-indol-7-yl)-1-[(1R,2R)-2-hydroxy-1-methyl-propyl]pyrazole-4-sulfonamide]: the IC50 in test [1] is less than 250 nM. Further, in test [2], the EC50 was in the range of 250 to 1000 nM.

With `Cc1ccc(NS(=O)(=O)c2cnn([C@H](C)[C@@H](C)O)c2)c2[nH]cc(C#N)c12` [Compound 287, N-(3-cyano-4-methyl-1H-indol-7-yl)-1-[(1R,2R)-2-hydroxy-1-methyl-propyl]pyrazole-4-sulfonamide], the IC50 in test [1] is less than 250 nM. In test [2], the EC50 is less than 250 nM.

As for `C[C@H]([C@@H](C)O)n1cc(S(=O)(=O)Nc2ccc(F)c3c(C#N)c[nH]c23)cn1` [Compound 288, N-(3-cyano-4-fluoro-1H-indol-7-yl)-1-[(1R,2R)-2-hydroxy-1-methyl-propyl]pyrazole-4-sulfonamide], the IC50 in test [1] was less than 250 nM. Further, the EC50 in test [2] lay within 250 to 1000 nM.

With `CC(C)(O)Cn1ncc(S(=O)(=O)Nc2ccc(Cl)c3c(C#N)c[nH]c23)c1N` [Compound 289, 5-amino-N-(4-chloro-3-cyano-1H-indol-7-yl)-1-(2-hydroxy-2-methyl-propyl)pyrazole-4-sulfonamide], in test [1], the IC50 was less than 250 nM. In addition, the EC50 in test [2] is 250 to 1000 nM.

For the compound `CCn1cc(S(=O)(=O)Nc2ccc(C)c3c(C#N)c[nH]c23)c(N)n1` [Compound 290, 3-amino-N-(3-cyano-4-methyl-1H-indol-7-yl)-1-ethyl-pyrazole-4-sulfonamide], the IC50 in test [1] is less than 250 nM. Besides, in test [2], the EC50 is less than 250 nM.

On to `CCn1cc(S(=O)(=O)Nc2ccc(F)c3c(C#N)c[nH]c23)c(N)n1` [Compound 291, 3-amino-N-(3-cyano-4-fluoro-1H-indol-7-yl)-1-ethyl-pyrazole-4-sulfonamide], for which the half-inhibitory concentration (IC50) in test [1] was less than 250 nM. Also, in test [2], the EC50 was in the range of 250 to 1000 nM.

For `N#Cc1c[nH]c2c(NS(=O)(=O)c3cnn(C(F)F)c3N)cccc12` [Compound 292], in test [1], the IC50 was less than 250 nM. For the same compound, the EC50 in test [2] was less than 250 nM.

As to `Cc1ccc(NS(=O)(=O)c2cnn(C(C)(F)CO)c2)c2[nH]cc(C#N)c12` (centres unmarked) [Compound 293, N-(3-cyano-4-methyl-1H-indol-7-yl)-1-(1-fluoro-2-hydroxy-1-methyl-ethyl)pyrazole-4-sulfonamide], the IC50 in test [1] is less than 250 nM. In addition, in test [2], the 50% effective concentration (EC50) was in the range of 250 to 1000 nM.

With `CC(F)(CO)n1cc(S(=O)(=O)Nc2ccc(F)c3c(C#N)c[nH]c23)cn1` (centres unmarked) [Compound 294, N-(3-cyano-4-fluoro-1H-indol-7-yl)-1-(1-fluoro-2-hydroxy-1-methyl-ethyl)pyrazole-4-sulfonamide], the IC50 in test [1] was less than 250 nM. The EC50 in test [2] is greater than 1000 nM.

With `Cc1ccc(NS(=O)(=O)c2c[nH]nc2N)c2[nH]cc(C#N)c12` [Compound 295, 3-amino-N-(3-cyano-4-methyl-1H-indol-7-yl)-1H-pyrazole-4-sulfonamide], the IC50 in test [1] was less than 250 nM. The EC50 in test [2] lay within 250 to 1000 nM.

As for `N#Cc1c[nH]c2c(NS(=O)(=O)c3c[nH]nc3N)ccc(Cl)c12` [Compound 296, 3-amino-N-(4-chloro-3-cyano-1H-indol-7-yl)-1H-pyrazole-4-sulfonamide], in test [1], the IC50 was less than 250 nM. Also, in test [2], the EC50 is greater than 1000 nM.

Regarding `Cc1ccc(NS(=O)(=O)c2cnn(C(F)CO)c2)c2[nH]cc(C#N)c12` (centres unmarked) [Compound 297, N-(3-cyano-4-methyl-1H-indol-7-yl)-1-(1-fluoro-2-hydroxy-ethyl)pyrazole-4-sulfonamide], in test [1], the IC50 was less than 250 nM. Also, the EC50 in test [2] is less than 250 nM.

Consider `N#Cc1c[nH]c2c(NS(=O)(=O)c3cnn(C(F)CO)c3)ccc(F)c12` (centres unmarked) [Compound 298, N-(3-cyano-4-fluoro-1H-indol-7-yl)-1-(1-fluoro-2-hydroxy-ethyl)pyrazole-4-sulfonamide], for which the IC50 in test [1] was less than 250 nM. For the same compound, the EC50 in test [2] is 250 to 1000 nM.

For `Cn1ncc(S(=O)(=O)Nc2cccc3c(C#N)c[nH]c23)c1N` [Compound 299, 5-amino-N-(3-cyano-1H-indol-7-yl)-1-methyl-pyrazole-4-sulfonamide], the IC50 in test [1] is less than 250 nM. Also, in test [2], the EC50 lay within 250 to 1000 nM.

For `N#Cc1c[nH]c2c(NS(=O)(=O)c3c[nH]nc3N)ccc(F)c12` [Compound 300, 3-amino-N-(3-cyano-4-fluoro-1H-indol-7-yl)-1H-pyrazole-4-sulfonamide], the IC50 in test [1] was less than 250 nM. For the same compound, in test [2], the EC50 was greater than 1000 nM.

For the compound `Cc1ccc(NS(=O)(=O)c2cnn(C(F)(F)CO)c2)c2[nH]cc(C#N)c12` [Compound 301, N-(3-cyano-4-methyl-1H-indol-7-yl)-1-(1,1-difluoro-2-hydroxy-ethyl)pyrazole-4-sulfonamide], the IC50 in test [1] was less than 250 nM. Also, in test [2], the EC50 was less than 250 nM.

As to `N#Cc1c[nH]c2c(NS(=O)(=O)c3cnn(CF)c3)ccc(F)c12` [Compound 302, N-(3-cyano-4-fluoro-1H-indol-7-yl)-1-(fluoromethyl)pyrazole-4-sulfonamide], in test [1], the IC50 is less than 250 nM. Also, the concentration giving a half-maximal response (EC50) in test [2] is 250 to 1000 nM.
